Measurements as given in patent publication US20250380696A1, “METHOD FOR CONTROLLING UNDESIRED PLANTS AND PROMOTING GROWTH OF USEFUL PLANTS” (ISHIHARA SANGYO KAISHA, LTD., priority 2022, published 2025).
Read-outs that look alike come from different tables or passages of the source.

System: Italian ryegrass (Lolium multiflorum)
Experiment: (16) Herbicidal effect test (comparative test), pot, spray at 2.5 to 3.0 leaf stage
Assay type: in vivo
Settings: Lolium multiflorum, read-out: Growth inhibition rate (%) Measured value
From the text: [formula] • X: growth inhibition rate when treated with α (g/ha) of compound A, • Y: growth inhibition rate when treated with β (g/ha) of compound B, • E: growth inhibition rate expected when treated with α (g/ha) of compound A and β (g/ha) of compound B (expected value).
Upland soil was put in a 1/1,000,000 hectare pot, and seeds of Italian ryegrass (Lolium multiflorum) were sown. When Italian ryegrass reached 2.5 to 3.0 leaf stage, a water-based suspension containing tiafenacil as the active ingredient, prepared by a conventional method for preparing a water-based suspension, a water-based suspension containing saflufenacil as the active ingredient (tradename: Sharpen, manufactured by BASF), a wettable powder containing fomesafen as the active ingredient, prepared by a conventional method for preparing a wettable powder, an emulsifiable concentrate containing fluthiacet-methyl as the active ingredient (tradename: Attackshot emulsifiable concentrate, manufactured by MARUWA Biochemical Co., Ltd.), a dry flowable containing carfentrazone-ethyl as the active ingredient (tradename: Task DF, manufactured by ISHIHARA SANGYO KAISHA, LTD.) or a water-based suspension containing pyraflufen-ethyl as the active ingredient (tradename: ECOPART flowable, manufactured by NIHON NOHYAKU CO., LTD.), and an emulsifiable concentrate containing S-metolachlor as the active ingredient (tradename: Dual Gold, manufactured by Syngenta) or a wettable powder containing metribuzin as the active ingredient (tradename: SENCOR wettable powder, manufactured by Bayer Crop Science), were diluted with water (in an amount corresponding to 200 liter per hectare) containing 0.5 vol % of an agricultural spreader (tradename: Destiny HC, manufactured by Winfield Solutions, LLC.) and sprayed by a small spray gun (model: W-101-132G, manufactured by ANEST IWATA Corporation). On the 4th day after spraying, the state of growth of the Italian ryegrass was visually observed, and the growth inhibition rate (%) was obtained in accordance with the evaluation standards described in the above (1) herbicidal effect test, and the results are shown in Table 16. Further, the expected value of the growth inhibition rate (%) was calculated in accordance with the Colby's formula described in the above (1) herbicidal effect test, and the results are also shown in Table 16.

[1] = Dose 12.5 g/ha, 4th day after spraying

Compound | inhibition at 12.5 g/ha | inhibition at 12.5 g/ha [1]
CCOC(=O)C(Cl)Cc1cc(-n2nc(C)n(C(F)F)c2=O)c(F)cc1Cl (centres unmarked) [carfentrazone-ethyl] | 12% | –
COC(=O)CSc1cc(/N=c2\sc(=O)n3n2CCCC3)c(F)cc1Cl [fluthiacet-methyl] | – | 12%
CS(=O)(=O)NC(=O)c1cc(Oc2ccc(C(F)(F)F)cc2Cl)ccc1[N+](=O)[O-] [fomesafen] | – | 8%
CCOC(=O)COc1cc(-c2nn(C)c(OC(F)F)c2Cl)c(F)cc1Cl [pyraflufen-ethyl] | 25% | –
CC(C)N(C)S(=O)(=O)NC(=O)c1cc(-n2c(=O)cc(C(F)(F)F)n(C)c2=O)c(F)cc1Cl [saflufenacil] | – | 33%
